Experimental data: US7951788B2, “Method of treating cancer and other conditions or disease states using L-cytosine nucleoside analogs” (Yale University, priority 2005, dated 2011)

Assays:
[1] = test system: colon 38; assay: Experiment 2: enhancement of the anti-cancer effect of oxaliplatin on colon 38 growth in mice; format: in vivo, C57BL6 female mice; settings: combination with oxaliplatin 10 mg/kg i.p. once on day 1, FIG. 2; for enhancement of the anti-tumor effect of oxaliplatin on colon 38: nucleoside p.o. b.i.d. days 1-5 (3TC, FTC 100 mg/kg; LFd4C 15 mg/kg per legend); for duration of the enhancing effect with oxaliplatin: nucleoside p.o. b.i.d. days 1-5
Description: (§1) In general, the following protocol was used to implant mice with tumor cell lines and to test drugs for the anti-cancer effect.
(§2) This tumor is passed from a solid tumor growing in mice. Several grams (assuming a gram per ml) are pressed through a sterile screen and suspended in a tissue culture media without phenol red or fetal calf serum (a balanced salt solution) at 2 ml/gram of tumor. Then 0.1 ml of this tumor suspension is implanted into the flank of the mouse. Ten days to two weeks after implantation (when the tumors could be measured with a caliper), unless otherwise indicated, the drug therapy was initiated.
(§3) In general, drugs are delivered according to the following schedule. Every day the mice are weighed to deter the amount to be injected and as an index of toxicity.
(§4) The Tumor Volume is calculated from the measurements by the formula: length (mm)×width (mm)×width (mm)×Π/6 as a % of Day 1.
Experiment 2 tested the effects of 3TC, FTC and LFD4C (same schedule as above) on the enhancement of anti-cancer drug effect of oxaliplatin (10 mg/kg i.p., once on day 1) on colon 38 growth in C57BL6 female mice. […].
In FIG. 2, the following legend applies:
3TC and FTC (100 mg/kg) p.o.b.i.d. day 1-5;
LFd4C (15 mg/kg) p.o.b.i.d. days 1-5;
Oxaplatin (10 mg/kg) i.p. once on day 1;
Combination groups received both treatments as described above.

[2] = test system: colon 38 mouse tumor; assay: Experiment 1: growth of colon 38 tumor implanted in the flank of mice, drugs alone and combined with 5-FU/leucovorin; format: in vivo; settings: FIG. 1; for effect on the anti-cancer activity of 5-FU/LV: combination with 5FU/LV 150 mg/kg each i.p. once on day one, nucleoside p.o. b.i.d. for 5 days (3TC, FTC 100 mg/kg; LFD4C 20 mg/kg); for growth of colon 38 mouse tumor (tumor volume as % of Day 1): drug alone; for growth of colon 38 mouse tumor (tumor volume as % of Day 1) / duration of the effect on colon 38 tumor growth: immunocompetent mice, p.o. b.i.d. for 5 days, 3TC and FTC 100 mg/kg, LFD4C 20 mg/kg
Description: as §1, §2, §3, §4
This experiment was designed to determine the effect of 3TC, FTC or LFD4C alone and in combination with 5-Fluorouracil with leucovorin rescue on the growth of mouse tumor (colon 38) in immuno-competent mice. The drugs were administered to the mice according to the following schedule:
5FU/LV—150 mg/kg each i.p. once on day one
3TC—100 mg/kg p.o. b.i.d. for 5 days
FTC—100 mg/kg p.o. bid for 5 days
LFD4C—20 mg/kg p.o. b.i.d. for 5 days
Combination groups received both treatments as per above schedules.
In FIG. 1, the following legend applies:
3TC (100 mg/kg) p.o.b.i.d.×5 days;
FTC (100 mg/kg) p.o.b.i.d.×5 days;
LFd4C (20 mg/kg) p.o.b.i.d.×5 days;
Combination groups received both treatments as per above.

SMILES	enhancement of the anti-tumor effect of oxaliplatin on colon 38 [1]	duration of the enhancing effect with oxaliplatin [1]	effect on the anti-cancer activity of 5-FU/LV [2]	growth of colon 38 mouse tumor (tumor volume as % of Day 1) [2]	duration of the effect on colon 38 tumor growth [2]
Nc1nc(=O)n([C@@H]2CS[C@H](CO)O2)cc1F [FTC, emtricitabine]	clearly enhanced	lasts well after the treatment is stopped	significant (additive or synergistic)	slows down the growth	lasted well past the 5 day therapy
Nc1nc(=O)n([C@@H]2C=C[C@H](CO)O2)cc1F [LFD4C, Elvucitabine]	clearly enhanced	lasts well after the treatment is stopped	significant (additive or synergistic)	slows down the growth	lasted well past the 5 day therapy
